According to patent US9493461B2, “Tetracyclic heterocycle compounds and methods of use thereof for the treatment of hepatitis C” (priority 2013, dated 2016):
pIC50: −log10 of the molar value. Read-outs that look alike come from different tables or passages of the source.

Assays:
HCV replicon genotype 1a = assay: HCV replicon assay, genotype 1a (cell ELISA for replicon-encoded NS3/4A); format: cell-based, hepatitis C virus (HCV); conditions: for IC50: Hepatitis C virus, 96 h, read-out: 1a IC50 (nM), genotype 1a replicon cells, 96 hours incubation, NS3/4A ELISA readout, % of DMSO control
In short: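 Stable G418-selected neomycin-resistant HCV replicon cells were plated with serially diluted compound without G418 and incubated 96 h. After washing and lysis, replicon RNA was measured indirectly by cell ELISA for replicon-encoded NS3/4A; IC50 from four-parameter fit relative to DMSO control.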

HCV replicon genotype 1b = assay: HCV replicon assay, genotype 1b (cell ELISA for replicon-encoded NS3/4A); format: cell-based, hepatitis C virus (HCV); conditions: for IC50: Hepatitis C virus, 96 h, read-out: 1b IC50 (nM), genotype 1b replicon cells, 96 hours incubation, NS3/4A ELISA readout, % of DMSO control
In short: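 Genotype 1b replicon cells (neomycin-selected, G418 removed for assay) incubated 96 h with compound dilution series. Replication measured by cell ELISA for replicon-encoded NS3/4A after lysis; IC50 from four-parameter fit relative to DMSO control.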

| SMILES | IC50 (HCV replicon genotype 1a) | IC50 (HCV replicon genotype 1b) | pIC50 (HCV replicon genotype 1a; read-out: 1a IC50, genotype 1a replicon cells, 96 hours incubation, NS3/4A ELISA readout, % of DMSO control) | pIC50 (HCV replicon genotype 1b; read-out: 1b IC50, genotype 1b replicon cells, 96 hours incubation, NS3/4A ELISA readout, % of DMSO control) |
| --- | --- | --- | --- | --- |
| CNC(=O)c1c(-c2ccc(F)cc2)oc2cc(N(C)S(C)(=O)=O)c(-c3ccc4nc(CN5CCN(C)CC5)n5c6cccc(F)c6cc5c4n3)cc12 [Example 108] | 6.08 nM | 8.48 nM |  |  |
| CNC(=O)c1c(-c2ccc(F)cc2)oc2cc(N(C)S(C)(=O)=O)c(-c3ccc4nc(CN5CC6CC5CO6)n5c6cccc(F)c6cc5c4n3)cc12 (stereo not drawn) [Example 109] | 8.1 nM | 11.2 nM |  |  |
| CNC(=O)c1c(-c2ccc(F)cc2)oc2cc(N(C)S(C)(=O)=O)c(-c3ccc4nc(CN5CC(F)(C#N)C5)n5c6cccc(F)c6cc5c4n3)cc12 [Example 110] | 4.04 nM | 5.51 nM |  |  |
| CNC(=O)c1c(-c2ccc(F)cc2)oc2cc(N(C)S(C)(=O)=O)c(-c3ccc4nc(CN)n5c6cccc(F)c6cc5c4n3)cc12 [Example 111] | 4.15 nM | 7.79 nM |  |  |
| CNC(=O)c1c(-c2ccc(F)cc2)oc2cc(N(C)S(C)(=O)=O)c(-c3cc4c(cn3)nc(CN3CCOCC3)n3c5cccc(F)c5cc43)cc12 [Example 112] | 2.02 nM | 3.45 nM |  |  |
| CNC(=O)c1c(-c2ccc(F)cc2)oc2cc(N(C)S(C)(=O)=O)c(-c3ccc4nc(CN(C)CC(=O)N(C)C)n5c6cccc(F)c6cc5c4n3)cc12 [Example 115] | 2.19 nM | 4.93 nM |  |  |
| CNC(=O)c1c(-c2ccc(F)cc2)oc2cc(N(C)S(C)(=O)=O)c(-c3ccc4nc(Cn5cncn5)n5c6cccc(F)c6cc5c4n3)cc12 [Example 116] | 1.88 nM | 1.7 nM |  |  |
| CNC(=O)c1c(-c2ccc(F)cc2)oc2cc(N(C)S(C)(=O)=O)c(-c3cc4c(cn3)nc(CN3CCC(F)(F)C3)n3c5cccc(F)c5cc43)cc12 [Example 117] | 3.49 nM | 5.01 nM |  |  |
| CNC(=O)c1c(-c2ccc(F)cc2)oc2cc(N(C)S(C)(=O)=O)c(-c3cc4c(cn3)nc(CN3CC(C)(F)C3)n3c5cccc(F)c5cc43)cc12 [Example 118] | 2.67 nM | 4.24 nM |  |  |
| CNC(=O)c1c(-c2ccc(F)cc2)oc2cc(N(C)S(C)(=O)=O)c(-c3cc4c(cn3)nc(CN3CC(C)(C#N)C3)n3c5cccc(F)c5cc43)cc12 [Example 119] | 1.74 nM | 3.59 nM |  |  |
| CNC(=O)c1c(-c2ccc(F)cc2)oc2cc(N(C)S(C)(=O)=O)c(-c3ccc4nc(CN5CC(F)C5)n5c6cccc(C#N)c6cc5c4n3)cc12 [Example 120] | 1.67 nM | 2.01 nM |  |  |
| CNC(=O)c1c(-c2ccc(F)cc2)oc2cc(N(C)S(C)(=O)=O)c(-c3ccc4nc(CN5CC[C@@H](F)C5)n5c6cccc(C#N)c6cc5c4n3)cc12 [Example 121] | 2.95 nM | 3.25 nM |  |  |
| CNC(=O)c1c(-c2ccc(F)cc2)oc2cc(N(C)S(C)(=O)=O)c(-c3ccc4nc(CN5CCC(F)(F)C5)n5c6cccc(C#N)c6cc5c4n3)cc12 [Example 122] | 2.44 nM | 3.46 nM |  |  |
| CNC(=O)c1c(-c2ccc(F)cc2)oc2cc(N(C)S(C)(=O)=O)c(-c3ccc4nc(CN5CCC(F)(F)CC5)n5c6cccc(C#N)c6cc5c4n3)cc12 [Example 123] | 6.91 nM | 5.8 nM |  |  |
| CNC(=O)c1c(-c2ccc(F)cc2)oc2cc(N(C)S(C)(=O)=O)c(-c3ccc4nc(CN5CC(F)(F)C5)n5c6cccc(C#N)c6cc5c4n3)cc12 [Example 124] | 1.89 nM | 1.76 nM |  |  |
| CNC(=O)c1c(-c2ccc(F)cc2)oc2cc(N(C)S(C)(=O)=O)c(-c3ccc4nc(CN5CC(OC)C5)n5c6cccc(C#N)c6cc5c4n3)cc12 [Example 125] | 2.32 nM | 3.21 nM |  |  |
| CNC(=O)c1c(-c2ccc(F)cc2)oc2cc(N(C)S(C)(=O)=O)c(-c3ccc4nc(CN5CC(C)(OC)C5)n5c6cccc(C#N)c6cc5c4n3)cc12 [Example 126] | 2.24 nM | 2.72 nM |  |  |

| SMILES | IC50 (HCV replicon genotype 1a) | IC50 (HCV replicon genotype 1b) | pIC50 (HCV replicon genotype 1a; read-out: 1a IC50, genotype 1a replicon cells, 96 hours incubation, NS3/4A ELISA readout, % of DMSO control) | pIC50 (HCV replicon genotype 1b; read-out: 1b IC50, genotype 1b replicon cells, 96 hours incubation, NS3/4A ELISA readout, % of DMSO control) |
| --- | --- | --- | --- | --- |
| CNC(=O)c1c(-c2ccc(F)cc2)oc2cc(N(C)S(C)(=O)=O)c(-c3ccc4nc(CN5CC6(CCOCC6)C5)n5c6cccc(C#N)c6cc5c4n3)cc12 [Example 127] | 1.5 nM | 2.57 nM |  |  |
| CNC(=O)c1c(-c2ccc(F)cc2)oc2cc(N(C)S(C)(=O)=O)c(-c3ccc4nc(CN5CC(C)(F)C5)n5c6cccc(C#N)c6cc5c4n3)cc12 [Example 128] | 2.3 nM | 2.98 nM |  |  |
| CNC(=O)c1c(-c2ccc(F)cc2)oc2cc(N(C)S(C)(=O)=O)c(-c3ccc4nc(CN5CCOC(C(F)(F)F)C5)n5c6cccc(C#N)c6cc5c4n3)cc12 (stereo not drawn) [Example 129] | 5.68 nM | 6.95 nM |  |  |
| CNC(=O)c1c(-c2ccc(F)cc2)oc2cc(N(C)S(C)(=O)=O)c(-c3ccc4nc(CN5CC(C)(C#N)C5)n5c6cccc(C#N)c6cc5c4n3)cc12 [Example 130] | 1.22 nM | 1.39 nM |  |  |
| CNC(=O)c1c(-c2ccc(F)cc2)oc2cc(N(C)S(C)(=O)=O)c(-c3ccc4nc(CN5CC(O)(C(F)(F)F)C5)n5c6cccc(C#N)c6cc5c4n3)cc12 [Example 131] | 4.09 nM | 4.23 nM |  |  |
| CNC(=O)c1c(-c2ccc(F)cc2)oc2cc(N(C)S(C)(=O)=O)c(-c3ccc4nc(CC5CC[C@H](OC)C5)n5c6cccc(C#N)c6cc5c4n3)cc12 (stereo partly drawn) [Example 132] | 2.83 nM | 3.5 nM |  |  |
| CNC(=O)c1c(-c2ccc(F)cc2)oc2cc(N(C)S(C)(=O)=O)c(-c3ccc4nc(CC5CC[C@@H](OC)C5)n5c6cccc(C#N)c6cc5c4n3)cc12 (stereo partly drawn) [Example 133] | 2.98 nM | 3.56 nM |  |  |
| CNC(=O)c1c(-c2ccc(F)cc2)oc2cc(N(C)S(C)(=O)=O)c(-c3ccc4nc(CN5CCOCC5)n5c6cccc(C#N)c6cc5c4n3)cc12 [Example 134] | 2.6 nM | 2.02 nM |  |  |
| CNC(=O)c1c(-c2ccc(F)cc2)oc2cc(N(C)S(C)(=O)=O)c(-c3ccc4nc(CN5CC[C@@H](F)C5)n5c6cccc(C#N)c6cc5c4n3)cc12 [Example 135] |  |  | 8.57 | 8.44 |
| CNC(=O)c1c(-c2ccc(F)cc2)oc2cc(N(C)S(C)(=O)=O)c(-c3ccc4nc(CN5CC(CC(F)(F)F)C5)n5c6cccc(C#N)c6cc5c4n3)cc12 [Example 136] | 6.6 nM | 10.6 nM |  |  |
| CNC(=O)c1c(-c2ccc(F)cc2F)oc2cc(N(C)S(C)(=O)=O)c(-c3ccc4nc(CC5CC6(CNC(=O)C6)C5)n5c6cccc(F)c6cc5c4n3)cc12 (stereo not drawn) [Example 137] | 6.67 nM | 5.04 nM |  |  |
| CNC(=O)c1c(-c2ccc(F)cc2F)oc2cc(N(C)S(C)(=O)=O)c(-c3ccc4nc(CN5CC(C)(OC)C5)n5c6cccc(F)c6cc5c4n3)cc12 [Example 138] | 4.33 nM | 4.59 nM |  |  |
| CNC(=O)c1c(-c2ccc(F)cc2F)oc2cc(N(C)S(C)(=O)=O)c(-c3ccc4nc(CN5CC(C)(C#N)C5)n5c6cccc(F)c6cc5c4n3)cc12 [Example 139] | 2.79 nM | 3.16 nM |  |  |
| CNC(=O)c1c(-c2ccc(F)cc2F)oc2cc(N(C)S(C)(=O)=O)c(-c3ccc4nc(CN5CC(C)(F)C5)n5c6cccc(F)c6cc5c4n3)cc12 [Example 140] | 2.95 nM | 4.31 nM |  |  |
| CNC(=O)c1c(-c2ccc(F)cc2F)oc2cc(N(C)S(C)(=O)=O)c(-c3ccc4nc(CN5CCC(F)(C#N)CC5)n5c6cccc(F)c6cc5c4n3)cc12 [Example 141] | 5.48 nM | 5.99 nM |  |  |
| CNC(=O)c1c(-c2ccc(F)cc2F)oc2cc(N(C)S(C)(=O)=O)c(-c3ccc4nc(CN5CC(C)(O)C5)n5c6cccc(F)c6cc5c4n3)cc12 [Example 142] | 3.05 nM | 2.85 nM |  |  |
